SMILES strings stand for the structures. Read-outs that look alike come from different tables or passages of the source.

One assay has as its target KDR kinase (Homo sapiens (Human), UniProt P35968). The assay is described as follows: KDR kinase inhibition (Table 4). It counts as biochemical.
In assay [1] the target is unphosphorylated c-FMS kinase (uFMS, Seq. ID no. 1) (Homo sapiens (Human), UniProt P07333). Briefly: uFMS kinase assay (ADP production coupled to pyruvate kinase/lactate dehydrogenase). The class given is biochemical. The method, boiled down:
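Unphosphorylated FMS (10 nM) with polyE4Y 1 mg/mL and 500 μM ATP in 90 mM Tris pH 7.5, 10 mM MgCl2, 0.2% octyl-glucoside, 1% DMSO. ADP formation was coupled via pyruvate kinase/LDH to NADH oxidation, followed at A340 for 4 h at 30° C.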

A further assay relates to c-FMS. Briefly: cFOS mRNA production in a c-FMS mouse spleen pharmacodynamic model. The class given is in vivo. The following applies: out to 8 h post 30 mg/kg dose, single oral dose. As to the method:
Analysis of cFOS mRNA Production in a c-FMS Mouse Spleen Pharmacodynamic Model
To examine the in vivo modulation of FMS activity by compounds of formula I, spleen samples from female DBA/1 mice were collected and analyzed for M-CSF stimulated production of cFOS mRNA. Briefly, six to seven week old female Taconic DBA/1BO J Bom Tac mice were treated with a single oral dose (by gavage) of either vehicle or compound. Plasma and spleen samples were collected from four mice at each timepoint 2, 4, 6, 8, 12, 18, and 24 hours after dosing. Fifteen minutes prior to euthanasia, all mice were injected IV with 1 μg (100 μL fixed volume) of M-CSF. M-CSF, Recombinant Mouse Macrophage Colony Stimulating Factor (36.4 kDa homodimer, ≧98% purity) was obtained from Gibco. All procedures carried out in this experiment were conducted in compliance with all the laws, regulations and guidelines of the National Institutes of Health (NIH). cFOS mRNA levels in spleen extracts were determined using a quantitative reverse transcriptase PCR kit from Life Technologies. Plasma levels of FMS inhibitors were determined by mass spectrometer analysis. The degree of FMS inhibition was correlative to the amount of decrease observed in cFOS mRNA levels in the spleen samples of treated animals compared to vehicle.

Assay [2] relates to MDA-MB-231-luc-D3H2LN human breast carcinoma xenograft. The assay is described as follows: MDA-MB-231 xenograft study. The following applies: orally dosed at 30 mg/kg twice daily. The class given is in vivo, mouse. As to the method: MDA-MB-231 Xenograft Study
To evaluate the in vivo anti-cancer activity compounds of formula I, a MDA-MB-231-luc-D3H2LN human breast carcinoma xenograft was employed. Briefly, MDA-MB-231-luc-D3H2LN cells were obtained from Xenogen and expanded in Minimal Essential Media (MEM) with EBSS which was modified with 1% L-glutamine and supplemented with 10% FBS, 1% PSG, 1% non-essential amino acids, and 1% sodium pyruvate. The growth environment was maintained in an incubator with a 5% CO2 atmosphere at 37° C. Cells were harvested and re-suspended using 50% serum-free media and 50% Matrigel® to generate a stock concentration of 5×10^6 cells/mL.
Six to 7 week old female C.B-17/IcrHsd-PrkdcscidLystbg mice were injected with 200 μL of cell suspension subcutaneously, just below the right axilla. All procedures carried out in this experiment were conducted in compliance with all the laws, regulations and guidelines of the National Institutes of Health (NIH). Treatment began when the mean tumor burden was approximately 150 mg. All mice were dosed with test compound by oral gavage. Body weights and tumor measurements were recorded three times weekly. […] Images were analyzed using Living Image (Xenogen, Alameda, Calif.) software. […]

Assay [3] deals with unphosphorylated c-KIT kinase (uKIT, Seq. ID no. 2) (Homo sapiens (Human), UniProt P10721). Briefly: uKit kinase assay (coupled pyruvate kinase/lactate dehydrogenase). It counts as biochemical. Particulars: enzymatic assay, ATP 2000 μM. The procedure, abridged: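 Unphosphorylated KIT (12 nM, N-terminal GST fusion) was run with 1 mg/mL polyE4Y, 2000 μM ATP and 10 mM MgCl2 in Tris buffer (pH 7.5, 0.2% octyl-glucoside, 1% DMSO). ADP was coupled via PK/LDH, with NADH loss tracked at A340 for 4 h at 30 °C. Rates at 3–4 h gave % inhibition and IC50.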
unphosphorylated c-KIT kinase (uKIT, Seq. ID no. 2), sequence (P10721 other isoform, or with tags, fused parts or gaps): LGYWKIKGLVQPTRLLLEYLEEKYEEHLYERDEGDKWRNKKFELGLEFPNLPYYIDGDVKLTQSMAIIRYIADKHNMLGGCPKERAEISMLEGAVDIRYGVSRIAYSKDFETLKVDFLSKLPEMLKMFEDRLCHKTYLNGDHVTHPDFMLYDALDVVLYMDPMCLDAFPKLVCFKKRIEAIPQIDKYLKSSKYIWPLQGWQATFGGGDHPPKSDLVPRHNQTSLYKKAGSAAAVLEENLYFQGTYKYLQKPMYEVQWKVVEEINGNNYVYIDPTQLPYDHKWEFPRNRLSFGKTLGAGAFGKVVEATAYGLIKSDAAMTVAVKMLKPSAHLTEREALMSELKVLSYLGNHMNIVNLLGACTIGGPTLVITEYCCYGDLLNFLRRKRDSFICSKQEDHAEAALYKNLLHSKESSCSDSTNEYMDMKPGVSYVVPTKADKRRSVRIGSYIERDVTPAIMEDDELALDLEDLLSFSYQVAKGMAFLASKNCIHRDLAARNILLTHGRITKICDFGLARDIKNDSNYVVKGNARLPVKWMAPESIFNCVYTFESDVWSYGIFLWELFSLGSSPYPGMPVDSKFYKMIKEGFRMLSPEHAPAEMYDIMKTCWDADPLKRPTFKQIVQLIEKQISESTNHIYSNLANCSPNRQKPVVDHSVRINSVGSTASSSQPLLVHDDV

In the next assay the target is cMET kinase (Homo sapiens (Human), UniProt P08581). The assay is described as follows: cMET kinase inhibition (Table 4). The class given is biochemical.
cMET kinase, sequence (P08581 25-1390): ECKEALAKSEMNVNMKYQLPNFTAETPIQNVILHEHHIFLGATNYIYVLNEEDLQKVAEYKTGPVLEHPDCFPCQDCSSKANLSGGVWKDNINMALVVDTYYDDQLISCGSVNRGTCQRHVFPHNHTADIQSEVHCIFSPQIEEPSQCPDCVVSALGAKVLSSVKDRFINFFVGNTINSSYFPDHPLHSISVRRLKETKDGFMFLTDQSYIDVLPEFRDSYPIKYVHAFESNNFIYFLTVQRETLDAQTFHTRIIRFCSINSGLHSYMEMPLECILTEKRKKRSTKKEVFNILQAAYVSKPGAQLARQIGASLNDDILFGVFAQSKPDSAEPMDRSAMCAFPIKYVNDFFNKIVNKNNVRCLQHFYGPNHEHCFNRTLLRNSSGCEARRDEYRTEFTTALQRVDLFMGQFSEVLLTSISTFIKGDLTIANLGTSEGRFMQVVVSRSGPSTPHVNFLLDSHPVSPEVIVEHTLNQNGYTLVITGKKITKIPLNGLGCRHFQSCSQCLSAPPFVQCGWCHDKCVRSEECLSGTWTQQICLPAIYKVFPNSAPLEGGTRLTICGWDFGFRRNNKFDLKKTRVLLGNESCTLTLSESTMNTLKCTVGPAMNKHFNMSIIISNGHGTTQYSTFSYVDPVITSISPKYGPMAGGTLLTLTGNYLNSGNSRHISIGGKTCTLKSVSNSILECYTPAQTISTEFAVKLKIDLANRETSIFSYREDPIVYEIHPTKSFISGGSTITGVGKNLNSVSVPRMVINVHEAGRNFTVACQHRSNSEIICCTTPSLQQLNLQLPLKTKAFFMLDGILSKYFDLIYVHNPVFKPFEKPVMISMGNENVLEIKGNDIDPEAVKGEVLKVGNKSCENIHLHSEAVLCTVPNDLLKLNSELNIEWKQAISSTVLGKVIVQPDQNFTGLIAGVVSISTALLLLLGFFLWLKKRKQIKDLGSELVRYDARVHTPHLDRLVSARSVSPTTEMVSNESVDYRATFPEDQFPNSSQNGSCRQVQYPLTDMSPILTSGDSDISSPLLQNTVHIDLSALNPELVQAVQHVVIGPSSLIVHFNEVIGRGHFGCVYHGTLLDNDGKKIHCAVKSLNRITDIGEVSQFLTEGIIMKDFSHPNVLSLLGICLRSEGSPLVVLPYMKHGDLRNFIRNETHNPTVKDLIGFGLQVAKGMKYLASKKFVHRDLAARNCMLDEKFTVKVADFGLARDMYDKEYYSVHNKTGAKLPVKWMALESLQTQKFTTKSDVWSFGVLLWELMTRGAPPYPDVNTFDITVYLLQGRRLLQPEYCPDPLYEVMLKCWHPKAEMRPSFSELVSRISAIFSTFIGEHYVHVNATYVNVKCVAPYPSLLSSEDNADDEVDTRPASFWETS
Where [4] appears, read: enzymatic assay, ATP 500 μM, read-out: uFMS.

unphosphorylated c-FMS kinase (uFMS, Seq. ID no. 1), sequence (P07333 538-972): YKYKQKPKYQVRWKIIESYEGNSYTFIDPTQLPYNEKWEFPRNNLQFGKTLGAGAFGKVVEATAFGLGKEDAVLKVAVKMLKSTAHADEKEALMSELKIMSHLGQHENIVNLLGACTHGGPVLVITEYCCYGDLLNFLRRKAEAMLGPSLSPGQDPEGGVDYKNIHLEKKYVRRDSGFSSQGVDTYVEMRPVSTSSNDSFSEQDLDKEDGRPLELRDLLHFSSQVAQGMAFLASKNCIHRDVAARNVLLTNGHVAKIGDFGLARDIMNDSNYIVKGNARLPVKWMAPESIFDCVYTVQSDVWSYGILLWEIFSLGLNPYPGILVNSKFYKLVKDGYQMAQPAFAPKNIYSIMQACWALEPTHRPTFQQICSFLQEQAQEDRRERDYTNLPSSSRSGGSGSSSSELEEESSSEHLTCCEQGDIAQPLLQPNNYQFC
KDR kinase, sequence (P35968 20-1356): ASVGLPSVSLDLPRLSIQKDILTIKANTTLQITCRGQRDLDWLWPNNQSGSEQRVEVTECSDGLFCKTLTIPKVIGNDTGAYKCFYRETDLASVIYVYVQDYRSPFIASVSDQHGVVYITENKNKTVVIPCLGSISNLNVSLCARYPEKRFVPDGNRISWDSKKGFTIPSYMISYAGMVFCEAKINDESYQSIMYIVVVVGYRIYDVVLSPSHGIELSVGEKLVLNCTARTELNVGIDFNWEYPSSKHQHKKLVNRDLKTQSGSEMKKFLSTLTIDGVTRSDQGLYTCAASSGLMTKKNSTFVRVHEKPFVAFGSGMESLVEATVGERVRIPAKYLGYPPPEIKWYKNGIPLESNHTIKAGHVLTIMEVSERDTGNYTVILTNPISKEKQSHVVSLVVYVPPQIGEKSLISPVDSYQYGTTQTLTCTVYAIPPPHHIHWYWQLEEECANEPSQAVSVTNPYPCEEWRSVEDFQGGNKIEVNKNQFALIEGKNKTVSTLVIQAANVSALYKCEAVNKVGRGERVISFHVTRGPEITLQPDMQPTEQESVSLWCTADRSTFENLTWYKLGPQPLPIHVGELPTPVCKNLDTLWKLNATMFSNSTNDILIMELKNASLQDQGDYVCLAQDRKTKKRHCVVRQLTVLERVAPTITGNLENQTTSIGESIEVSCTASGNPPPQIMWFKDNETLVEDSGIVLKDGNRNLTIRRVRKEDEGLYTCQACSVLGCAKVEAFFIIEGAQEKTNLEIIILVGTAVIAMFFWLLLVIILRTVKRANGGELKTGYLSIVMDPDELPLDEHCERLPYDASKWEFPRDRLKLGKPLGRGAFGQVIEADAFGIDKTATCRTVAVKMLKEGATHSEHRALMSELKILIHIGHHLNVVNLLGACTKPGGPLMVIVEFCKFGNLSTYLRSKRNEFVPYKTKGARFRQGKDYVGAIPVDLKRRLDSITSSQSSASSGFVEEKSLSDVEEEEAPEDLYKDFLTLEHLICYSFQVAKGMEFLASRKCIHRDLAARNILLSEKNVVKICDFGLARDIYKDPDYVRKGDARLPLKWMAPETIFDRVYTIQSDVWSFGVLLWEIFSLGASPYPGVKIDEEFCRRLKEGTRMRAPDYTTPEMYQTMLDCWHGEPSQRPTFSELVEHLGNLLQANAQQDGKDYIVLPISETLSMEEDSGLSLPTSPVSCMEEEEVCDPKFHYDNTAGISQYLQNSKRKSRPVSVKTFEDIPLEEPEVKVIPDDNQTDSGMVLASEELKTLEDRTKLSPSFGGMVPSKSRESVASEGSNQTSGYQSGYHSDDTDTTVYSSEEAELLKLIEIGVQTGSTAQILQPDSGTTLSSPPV

Consider `COCCN1CCN(C(=O)Nc2ccc(Oc3ccnc(-c4cnn(C)c4)c3)c(C)n2)C1=O` [Example 18, 3-(2-methoxyethyl)-N-(6-methyl-5-((2-(1-methyl-1H-pyrazol-4-yl)pyridin-4-yl)oxy)pyridin-2-yl)-2-oxoimidazolidine-1-carboxamide], for which the IC50 on KDR kinase was over 3300 nM; in assay [1] (Table 4, read-out: c-FMS IC50), 20 nM; in assay [1] (setting [4]), 10 to 100 nM; in assay [3] it was 100 to 1000 nM; against cMET kinase, over 5000 nM. Also, the “inhibition of cFOS mRNA levels” value with c-FMS is recorded as at least 70%. Also, the tumor growth inhibition in assay [2] was determined as 51%.

In the case of `Cc1nc(NC(=O)N2CCN(C)C2=O)ccc1Oc1ccnc(-c2cnn(C)c2)c1` [Example 41, 3-methyl-N-(6-methyl-5-((2-(1-methyl-1H-pyrazol-4-yl)pyridin-4-yl)oxy)pyridin-2-yl)-2-oxoimidazolidine-1-carboxamide], the IC50 was 10 to 100 nM in assay [1] (uFMS, enzymatic assay, ATP 500 μM) and over 1000 nM in assay [3]. In the assay on c-FMS, the “inhibition of cFOS mRNA levels” value was at least 70%.

On to `CCN1CCN(C(=O)Nc2ccc(Oc3ccnc(-c4cnn(C)c4)c3)c(C)n2)C1=O` [Example 42, 3-ethyl-N-(6-methyl-5-((2-(1-methyl-1H-pyrazol-4-yl)pyridin-4-yl)oxy)pyridin-2-yl)-2-oxoimidazolidine-1-carboxamide], for which the IC50 is over 10000 nM against KDR kinase; 8 nM in assay [1] (Table 4, read-out: c-FMS IC50); under 10 nM in assay [1] (setting [4]); 100 to 1000 nM in assay [3]; over 5000 nM on cMET kinase. Moreover, in the assay with c-FMS, the “inhibition of cFOS mRNA levels” value is listed as at least 70%.

As to `CCN1CCN(C(=O)Nc2ccc(Oc3ccnc(-c4ccnc(C)c4)c3)c(C)n2)C1=O` [Example 118, 3-ethyl-N-(6-methyl-5-((2′-methyl-[2,4′-bipyridin]-4-yl)oxy)pyridin-2-yl)-2-oxoimidazolidine-1-carboxamide], the IC50 in assay [1] (setting [4]) is 10 to 100 nM; in assay [3], over 1000 nM. Also, the “inhibition of cFOS mRNA levels” value in the assay on c-FMS is given as at least 70%.

For the origin of these results see patent US9133183B2, “Imidazolidinones and analogs exhibiting anti-cancer and anti-proliferative activities” (Deciphera Pharmaceuticals, LLC, priority 2013, dated 2015).
